Test results published in US20080319020A1, “4-Oxadiazolyl-Piperidine Compounds and Use Thereof” (Purdue Pharma L.P., priority 2005, published 2008).
Like-named read-outs stand apart in the source and are kept apart here.

What was measured:
[1] = target: T1, human opioid receptor-like (ORL-1) receptor (Homo sapiens, UniProt P41146); assay: ORL-1 receptor radioligand dose-displacement binding assay ([3H]-nociceptin)
T1 construct: host or cells: HEK-293
Description: All reagents are obtained from Sigma (St. Louis, Mo.) unless noted otherwise. Membranes from recombinant HEK-293 cells expressing the human opioid receptor-like (ORL-1) receptor (Perkin Elmer, Boston, Mass.) are prepared by lysing cells in ice-cold hypotonic buffer (2.5 mM MgCl2, 50 mM HEPES, pH 7.4) (10 mL/10 cm dish), followed by homogenization with a tissue grinder/teflon pestle. Membranes are collected by centrifugation at 30,000×g for 15 min at 4° C., and pellets are resuspended in hypotonic buffer to a final concentration of 1-3 mg/mL. Protein concentrations are determined using the BioRad (Hercules, Calif.) protein assay reagent with bovine serum albumen as standard. Aliquots of the ORL-1 receptor membranes are stored at −80° C.
(§1) Radioligand dose-displacement binding assays for ORL-1 and μ receptors use 0.1 nM [^3H]-nociceptin or 0.2 nM [^3H]-diprenorphine (NEN, Boston, Mass.), respectively, with […] membrane protein/well in a final volume of […] binding buffer (10 mM MgCl2, 1 mM EDTA, 5% DMSO, 50 mM HEPES, pH 7.4). Reactions are carried out in the absence or presence of increasing concentrations of unlabeled nociceptin (American Peptide Company, Sunnyvale, Calif.) or naloxone, for ORL-1 and […], respectively. All reactions are conducted in 96-deep well polypropylene plates for 1-2 h at room temperature. Binding reactions are terminated by rapid filtration onto 96-well Unifilter GF/C filter plates (Packard, Meriden, Conn.) presoaked in 0.5% polyethylenimine using a 96-well tissue harvester (Brandel, Gaithersburg, Md.) followed by three filtration washes with 500 μL of ice-cold binding buffer. Filter plates are subsequently dried at 50° C. for 2-3 h. BetaScint scintillation cocktail (Wallac, Turku, Finland) is added (50 μl/well), and plates are counted using a Packard Top-Count for 1 min/well. The data are analyzed using the one-site competition curve fitting functions in GraphPad PRISM v. 3.0 (San Diego, Calif.).

[2] = target: T2, μ opioid receptor (Homo sapiens, UniProt P35372); assay: μ-receptor [35S]GTPγS functional assay; format: biochemical; settings: for Emax: maximal effect relative to DAMGO, read-out: μ GTP Emax
Description: [^35S]GTPγS functional assays are conducted using freshly thawed ORL-1 or μ-receptor membranes, as appropriate. Assay reactions are prepared by sequentially adding the following reagents to binding buffer (100 mM NaCl, 10 mM MgCl2, 20 mM HEPES, pH 7.4) on ice (final concentrations indicated): membrane protein (0.066 mg/mL for ORL-1 receptor and 0.026 mg/mL for μ-receptor), saponin ([…]), GDP ([…]) and [^35S]GTPγS (0.20 nM; NEN). Aliquots of the prepared membrane solution (190 μL/well) are transferred to 96-shallow well polypropylene plates containing 10 μL of 20× concentrated stock solutions of the agonist nociceptin prepared in dimethyl sulfoxide (“DMSO”). Plates are incubated for 30 min at room temperature with shaking. Reactions are terminated by rapid filtration onto 96-well Unifilter GF/B filter plates (Packard, Meriden, Conn.) using a 96-well tissue harvester (Brandel, Gaithersburg, Md.) followed by three filtration washes with 200 μL of ice-cold binding buffer (10 mM NaH2PO4, 10 mM Na2HPO4, pH 7.4). Filter plates are subsequently dried at 50° C. for 2-3 h. BetaScint scintillation cocktail (Wallac, Turku, Finland) is added (50 μL/well) and plates are counted using a Packard Top-Count for 1 min/well. Data are analyzed using the sigmoidal dose-response curve fitting functions in GraphPad PRISM, v. 3.0.
μ GTP EC50 is the concentration of a compound providing 50% of the maximal response for the compound at a μ receptor.
μ GTP Emax % is the maximal effect elicited by a compound relative to the effect elicited by [D-Ala2, N-methyl-Phe4, Gly-ol5]-enkephalin (“DAMGO”), a standard μ agonist. Generally, the μ GTP Emax (%) value measures the efficacy of a compound to treat or prevent pain or diarrhea.

[3] = target: T2, μ opioid receptor; assay: μ-opioid receptor radioligand dose-displacement binding assay ([3H]-diprenorphine)
Description: as §1

[4] = target: T3, kappa opioid receptor (Homo sapiens, UniProt P41145); assay: κ opioid receptor binding assay ([3H]-U69,593)
T3 construct: expressed in transfected cells; host or cells: HEK-293
Description: Membranes from recombinant HEK-293 cells expressing the human kappa opioid receptor (kappa) (cloned in house) were prepared by lysing cells in ice cold hypotonic buffer (2.5 mM MgCl2, 50 mM HEPES, pH 7.4) (10 ml/10 cm dish) followed by homogenization with a tissue grinder/teflon pestle. Membranes were collected by centrifugation at 30,000×g for 15 min at 4° C. and pellets resuspended in hypotonic buffer to a final concentration of 1-3 mg/ml. Protein concentrations were determined using the BioRad protein assay reagent with bovine serum albumen as standard. Aliquots of kappa receptor membranes were stored at −80° C.
Radioligand dose displacement assays used 0.4-0.8 nM [^3H]-U69,593 (NEN; 40 Ci/mmole) with 10-20 μg membrane protein (recombinant kappa opioid receptor expressed in HEK 293 cells; in-house prep) in a final volume of 200 μl binding buffer (5% DMSO, 50 mM Trizma base, pH 7.4). Non-specific binding was determined in the presence of 10 μM unlabeled naloxone or U69,593. All reactions were performed in 96-well polypropylene plates for 1 h at room temperature. Binding reactions were determined by rapid filtration onto 96-well Unifilter GF/C filter plates (Packard) presoaked in 0.5% polyethylenimine (Sigma). Harvesting was performed using a 96-well tissue harvester (Packard) followed by five filtration washes with 200 μl ice-cold binding buffer. Filter plates were subsequently dried at 50° C. for 1-2 hours. Fifty μl/well scintillation cocktail (MicroScint; Packard) was added and plates were counted in a Packard Top-Count for 1 min/well.

[5] = target: T3, kappa opioid receptor; assay: κ opioid receptor functional [35S]GTPγS binding assay; format: biochemical; settings: for Emax: maximal effect relative to U69,593, read-out: κ GTP Emax
Description: κ GTP EC50 is the concentration of a compound providing 50% of the maximal response for the compound at an K receptor.
κ GTP Emax % is the maximal effect elicited by a compound relative to the effect elicited by U69,593.
(§2) The κ and δ opioid receptor functional [^35S]GTPγS binding assays were conducted as follows. Kappa or delta opioid receptor membrane solution was prepared by sequentially adding final concentrations of 0.026 μg/μl membrane protein (kappa: in-house, delta: Perkin Elmer), 10 μg/ml saponin, 3 μM GDP and 0.20 nM [^35S]GTPγS to binding buffer (100 mM NaCl, 10 mM MgCl2, 20 mM HEPES, pH 7.4) on ice. The prepared membrane solution (190 μl/well) was transferred to 96-shallow well polypropylene plates containing 10 μl of 20× concentrated stock solutions of agonist prepared in DMSO. Plates were incubated for 30 min at room temperature with shaking. Reactions were terminated by rapid filtration onto 96-well tissue harvester (Packard) and followed by three filtration washes with 200 μl ice-cold binding buffer (10 mM NaH2PO4), 10 mM Na2HPO4, pH 7.4). Filter plates were subsequently dried at 50° C. for 2-3 hours. Fifty μl/well scintillation cocktail (MicroScint20, Packard) was added and plates were counted in a Packard Top-Count for 1 min/well.

[6] = target: T4, delta opioid receptor (Homo sapiens, UniProt P41143); assay: δ opioid receptor binding assay ([3H]-Naltrindole)
T4 construct: purchased Perkin Elmer; host or cells: CHO-K1
Description: Radioligand dose-displacement assays used 0.2 nM [^3H]-Naltrindole (NEN; 33.0 Ci/mmole) with 10-20 μg membrane protein (recombinant delta opioid receptor expressend in CHO-K1 cells; Perkin Elmer) in a final volume of 500 μl binding buffer (5 mM MgCl2, 5% DMSO, 50 mM Trizma base, pH 7.4). Non-specific binding was determined in the presence of 25 μM unlabeled naloxone. All reactions were performed in 96-deep well polypropylene plates for 1 h at room temperature. Binding reactions were determined by rapid filtration onto 96-well Unifilter GF/C filter plates (Packard) presoaked in 0.5% polyethylenimine (Sigma). Harvesting was performed using a 96-well tissue harvester (Packard) followed by five filtration washes with 500 μl ice-cold binding buffer. Filter plates were subsequently dried at 50° C. for 1-2 hours. Fifty μl/well scintillation cocktail (MicroScint, Packard) was added and plates were counted in a Packard Top-Count for 1 min/well.

[7] = target: T4, delta opioid receptor; assay: δ opioid receptor functional [35S]GTPγS binding assay; format: biochemical; settings: for Emax: maximal effect relative to met-enkephalin, read-out: δ GTP Emax
Description: δ GTP EC50 is the concentration of a compound providing 50% of the maximal response for the compound at an δ receptor.
δ GTP Emax % is the maximal effect elicited by a compound relative to the effect elicited by met-enkephalin.
as §2

[8] = target: T5, ORL-1 receptor (Homo sapiens, UniProt P41146); assay: ORL-1 receptor [35S]GTPγS functional assay; format: biochemical
T5 construct: host or cells: HEK-293
Description: Filter plates are subsequently dried at 50° C. for 2-3 h. […] 3.0.

[9] = Ki for binding to μ-opioid receptors

T2 sequence (P35372 whole entry): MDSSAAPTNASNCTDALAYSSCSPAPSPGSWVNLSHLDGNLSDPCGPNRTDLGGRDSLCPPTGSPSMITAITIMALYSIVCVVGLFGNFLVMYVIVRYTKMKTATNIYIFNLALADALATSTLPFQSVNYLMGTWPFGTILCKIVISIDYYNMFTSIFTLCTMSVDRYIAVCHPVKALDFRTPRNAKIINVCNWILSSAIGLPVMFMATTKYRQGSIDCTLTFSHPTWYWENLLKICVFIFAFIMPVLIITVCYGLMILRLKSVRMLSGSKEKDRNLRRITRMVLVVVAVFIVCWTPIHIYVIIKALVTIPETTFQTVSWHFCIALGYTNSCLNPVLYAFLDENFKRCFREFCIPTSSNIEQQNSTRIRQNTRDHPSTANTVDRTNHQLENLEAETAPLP
T4 sequence (P41143 whole entry): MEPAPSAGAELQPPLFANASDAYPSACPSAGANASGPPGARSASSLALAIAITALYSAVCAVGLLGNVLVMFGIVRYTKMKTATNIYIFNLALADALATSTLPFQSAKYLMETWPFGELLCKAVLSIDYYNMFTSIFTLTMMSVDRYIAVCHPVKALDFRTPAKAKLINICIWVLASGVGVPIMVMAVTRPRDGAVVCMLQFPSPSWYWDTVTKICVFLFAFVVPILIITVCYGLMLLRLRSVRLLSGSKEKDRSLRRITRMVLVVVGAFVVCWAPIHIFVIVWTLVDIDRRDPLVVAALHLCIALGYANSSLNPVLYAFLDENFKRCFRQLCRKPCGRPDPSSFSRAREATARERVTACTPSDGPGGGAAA
T1 sequence (P41146 whole entry): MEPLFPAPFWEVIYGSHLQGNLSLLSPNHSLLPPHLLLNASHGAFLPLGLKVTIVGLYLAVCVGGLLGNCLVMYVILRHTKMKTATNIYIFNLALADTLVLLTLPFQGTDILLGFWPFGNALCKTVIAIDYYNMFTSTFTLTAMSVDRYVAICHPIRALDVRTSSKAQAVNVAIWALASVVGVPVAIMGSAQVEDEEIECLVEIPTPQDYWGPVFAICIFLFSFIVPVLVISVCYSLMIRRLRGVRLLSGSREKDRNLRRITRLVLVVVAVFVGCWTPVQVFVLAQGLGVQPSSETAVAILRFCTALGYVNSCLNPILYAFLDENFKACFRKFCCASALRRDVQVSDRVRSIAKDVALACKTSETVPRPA
T3 sequence (P41145 whole entry): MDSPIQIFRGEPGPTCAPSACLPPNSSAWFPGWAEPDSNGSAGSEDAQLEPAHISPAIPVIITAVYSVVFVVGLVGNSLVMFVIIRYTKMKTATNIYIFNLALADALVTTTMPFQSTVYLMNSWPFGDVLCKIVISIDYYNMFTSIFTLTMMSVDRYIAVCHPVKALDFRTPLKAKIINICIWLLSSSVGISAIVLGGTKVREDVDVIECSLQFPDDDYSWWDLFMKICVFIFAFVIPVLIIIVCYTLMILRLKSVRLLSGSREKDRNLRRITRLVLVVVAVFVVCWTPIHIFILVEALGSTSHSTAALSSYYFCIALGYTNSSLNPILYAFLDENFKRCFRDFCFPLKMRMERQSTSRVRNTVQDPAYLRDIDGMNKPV
T5 sequence (P41146 whole entry): as the sequence (P41146 whole entry) above

## CN(C)C(=O)C(CCN1CCC(c2ccccc2)(c2noc(CC(N)=O)n2)CC1)(c1ccccc1)c1ccccc1 [AFE]
[1]
  Ki: 1840 nM
[2]
  EC50: 16.1 nM
  Emax: 116%
[3]; [9]
  Ki: 5.9 nM
[3]; μ Ki
  Ki: 5.92 nM
[4]
  Ki: 152 nM
[5]
  EC50: 1260 nM
  Emax: 44.7%
[6]
  Ki: 3620 nM

## CCOC(=O)Cc1nc(C2(c3ccccc3)CCN(CCC(C(=O)N(C)C)(c3ccccc3)c3ccccc3)CC2)no1 [AFL]
[1]
  Ki: 696 nM
[2]
  EC50: 1.04 nM
  Emax: 117%
[3]; [9]
  Ki: 1.1 nM
[3]; μ Ki
  Ki: 1.11 nM
[4]
  Ki: 32.9 nM
[7]
  EC50: 84 nM
  Emax: 114%
[8]
  EC50: > 20000 nM
[8]; maximal effect relative to nociceptin, read-out: ORL1 GTP Emax
  Emax: 28%
[5]
  EC50: 1680 nM
  Emax: 52.7%
[6]
  Ki: 223 nM

## NC(=O)Cc1nc(C2(c3ccccc3)CCN(CCC(C(=O)N3CCCC3)(c3ccccc3)c3ccccc3)CC2)no1 [AFX]
[1]
  Ki: 1290 nM
[2]
  EC50: 8.09 nM
  Emax: 90%
[3]; [9]
  Ki: 4.8 nM
[3]; μ Ki
  Ki: 4.82 nM
[4]
  Ki: 365 nM
[5]
  EC50: 3830 nM
  Emax: 41.7%
[6]
  Ki: 2320 nM

## CCOC(=O)Cc1nc(C2(c3ccccc3)CCN(CCC(C(=O)N3CCCC3)(c3ccccc3)c3ccccc3)CC2)no1 [AGE]
[1]
  Ki: 3850 nM
[2]
  Emax: 103%
[2]; read-out: μ GTP EC50
  EC50: 2.03 nM
[3]; read-out: Ki for binding to μ-opioid receptors
  Ki: 1.3 nM
[3]; read-out: μ Ki
  Ki: 1.29 nM
[4]; read-out: κ Ki
  Ki: 91.9 nM
[7]
  Emax: 104%
[7]; read-out: δ GTP EC50
  EC50: 21.5 nM
[5]
  Emax: 56%
[5]; read-out: κ GTP EC50
  EC50: 704 nM
[6]; read-out: δ Ki
  Ki: 341 nM
